pEC50, pKi: −log10 of the molar value. Read-outs that look alike come from different tables or passages of the source.
Tests used:
CB1 receptor = conditions: cited from earlier work
KOR = KOR (Homo sapiens, UniProt P41145); assay: PDSP receptor profiling; type: binding
ion channels = conditions: membrane pressure and direct binding; cited from earlier work
[1] = patients with schizophrenia, 800 mg/day, not placebo-controlled; cited from earlier work
D1 = D1 (Homo sapiens, UniProt P21728); assay: PDSP receptor profiling; type: binding
σ2 = molecular target: T1, σ2 (Rattus norvegicus, UniProt Q5U3Y7); assay: PDSP receptor profiling; type: binding
T1 sequence (Q5U3Y7 1-176): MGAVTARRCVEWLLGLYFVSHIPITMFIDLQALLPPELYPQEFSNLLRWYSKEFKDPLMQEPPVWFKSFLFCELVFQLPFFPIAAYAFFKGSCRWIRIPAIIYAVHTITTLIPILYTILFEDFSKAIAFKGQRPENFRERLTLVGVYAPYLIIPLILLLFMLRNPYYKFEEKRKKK

[2] = tested on: malate dehydrogenase (MDH); assay: MDH orthogonal aggregation counter screen; type: biochemical; conditions: 33 or 100 μM; presence or absence of 0.01% Triton X-100
5-HT1A receptor = conditions: displacement of agonist [3H]-8-OH-DPAT; cited from earlier work
MOR = MOR (Homo sapiens, UniProt P35372); assay: PDSP receptor profiling; type: binding
ɑ2C = molecular target: T2, ɑ2C (Homo sapiens, UniProt P18825); assay: PDSP receptor profiling; type: binding
T2 sequence (P18825 1-462): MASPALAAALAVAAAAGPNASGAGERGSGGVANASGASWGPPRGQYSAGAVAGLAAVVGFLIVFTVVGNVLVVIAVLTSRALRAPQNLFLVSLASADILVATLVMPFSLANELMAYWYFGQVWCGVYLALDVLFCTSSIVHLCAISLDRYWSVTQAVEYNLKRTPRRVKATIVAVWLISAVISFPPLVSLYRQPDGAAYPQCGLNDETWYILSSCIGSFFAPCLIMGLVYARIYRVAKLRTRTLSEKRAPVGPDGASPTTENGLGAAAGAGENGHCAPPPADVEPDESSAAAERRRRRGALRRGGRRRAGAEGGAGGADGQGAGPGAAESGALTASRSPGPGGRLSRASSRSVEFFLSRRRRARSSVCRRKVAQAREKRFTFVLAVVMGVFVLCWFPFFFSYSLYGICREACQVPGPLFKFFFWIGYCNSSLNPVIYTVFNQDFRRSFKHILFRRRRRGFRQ

H3 = H3 (Homo sapiens, UniProt Q9Y5N1); assay: PDSP receptor profiling; type: binding
mice = conditions: oral single 246–2460 mg/kg or 61.5–615 mg/kg for 10 days; cited from earlier work
[3] = room temperature; air oxidation to cannabidiol hydroxyquinone; cited from earlier work
DOR = DOR (Homo sapiens, UniProt P41143); assay: PDSP receptor profiling; type: binding
[4] = cited from earlier work
[5] = Colloidal aggregate detection by dynamic light scattering; type: physicochemical; conditions: critical aggregation concentration can vary several-fold with conditions
ɑ2b = molecular target: T3, ɑ2b (Homo sapiens, UniProt P18089); assay: PDSP receptor profiling; type: binding
T3 sequence (P18089 1-450): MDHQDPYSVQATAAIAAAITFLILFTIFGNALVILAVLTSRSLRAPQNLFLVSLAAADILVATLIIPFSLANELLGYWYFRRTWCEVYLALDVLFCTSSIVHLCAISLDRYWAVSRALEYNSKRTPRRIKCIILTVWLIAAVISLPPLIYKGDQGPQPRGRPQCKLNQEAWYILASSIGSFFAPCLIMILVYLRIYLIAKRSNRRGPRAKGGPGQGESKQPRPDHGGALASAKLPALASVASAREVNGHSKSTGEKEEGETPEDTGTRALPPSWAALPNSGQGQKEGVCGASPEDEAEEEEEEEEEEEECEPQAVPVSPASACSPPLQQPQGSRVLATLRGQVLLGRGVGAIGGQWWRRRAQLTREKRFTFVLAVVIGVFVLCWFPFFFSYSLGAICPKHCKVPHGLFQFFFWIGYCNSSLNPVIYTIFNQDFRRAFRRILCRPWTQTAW

5-HT2C = molecular target: T4, 5-HT2C (Homo sapiens, UniProt P28335); assay: PDSP receptor profiling; type: binding
T4 sequence (P28335 33-458): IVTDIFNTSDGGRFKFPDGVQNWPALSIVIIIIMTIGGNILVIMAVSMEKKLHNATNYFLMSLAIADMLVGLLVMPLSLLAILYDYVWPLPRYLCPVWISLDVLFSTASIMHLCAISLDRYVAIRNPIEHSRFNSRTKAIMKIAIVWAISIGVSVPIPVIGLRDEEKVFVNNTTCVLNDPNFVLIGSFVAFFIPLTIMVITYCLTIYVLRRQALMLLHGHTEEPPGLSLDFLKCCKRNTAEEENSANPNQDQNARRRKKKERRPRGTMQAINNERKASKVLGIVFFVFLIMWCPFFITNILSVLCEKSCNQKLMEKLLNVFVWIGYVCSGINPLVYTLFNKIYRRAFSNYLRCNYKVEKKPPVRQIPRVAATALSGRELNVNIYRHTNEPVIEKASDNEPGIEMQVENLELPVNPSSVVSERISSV

AmpC β-lactamase = AmpC β-lactamase (Escherichia coli, UniProt P00811); assay: AmpC colloidal aggregation counter screen; type: biochemical; conditions: low micromolar concentrations; with/without detergent
[6] = cited from earlier work; for apparent plasma clearance (CL'): oromucosal spray
CB2 receptor = conditions: cited from earlier work

D1, sequence (P21728 whole entry): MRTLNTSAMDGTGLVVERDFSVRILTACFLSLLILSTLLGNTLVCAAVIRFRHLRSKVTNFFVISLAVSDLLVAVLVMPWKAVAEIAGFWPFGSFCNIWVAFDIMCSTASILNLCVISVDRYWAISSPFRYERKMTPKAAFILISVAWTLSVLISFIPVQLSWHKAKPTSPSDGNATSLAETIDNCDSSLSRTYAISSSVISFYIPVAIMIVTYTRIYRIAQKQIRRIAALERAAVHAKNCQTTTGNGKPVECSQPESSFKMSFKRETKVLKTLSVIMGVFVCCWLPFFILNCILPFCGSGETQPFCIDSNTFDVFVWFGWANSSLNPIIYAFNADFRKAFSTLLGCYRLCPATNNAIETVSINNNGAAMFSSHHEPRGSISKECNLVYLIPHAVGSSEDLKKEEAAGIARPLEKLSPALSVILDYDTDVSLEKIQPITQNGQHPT
AmpC β-lactamase, sequence (P00811 20-377): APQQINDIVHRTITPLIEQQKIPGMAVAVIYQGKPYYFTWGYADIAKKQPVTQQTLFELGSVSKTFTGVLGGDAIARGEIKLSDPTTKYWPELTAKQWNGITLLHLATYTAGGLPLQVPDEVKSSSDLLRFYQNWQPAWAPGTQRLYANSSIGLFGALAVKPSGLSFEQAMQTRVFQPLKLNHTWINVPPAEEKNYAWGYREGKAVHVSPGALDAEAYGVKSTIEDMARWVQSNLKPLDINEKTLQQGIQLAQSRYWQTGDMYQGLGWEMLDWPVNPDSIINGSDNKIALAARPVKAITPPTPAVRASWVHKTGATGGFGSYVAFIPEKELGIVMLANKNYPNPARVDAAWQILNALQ
MOR, sequence (P35372 whole entry): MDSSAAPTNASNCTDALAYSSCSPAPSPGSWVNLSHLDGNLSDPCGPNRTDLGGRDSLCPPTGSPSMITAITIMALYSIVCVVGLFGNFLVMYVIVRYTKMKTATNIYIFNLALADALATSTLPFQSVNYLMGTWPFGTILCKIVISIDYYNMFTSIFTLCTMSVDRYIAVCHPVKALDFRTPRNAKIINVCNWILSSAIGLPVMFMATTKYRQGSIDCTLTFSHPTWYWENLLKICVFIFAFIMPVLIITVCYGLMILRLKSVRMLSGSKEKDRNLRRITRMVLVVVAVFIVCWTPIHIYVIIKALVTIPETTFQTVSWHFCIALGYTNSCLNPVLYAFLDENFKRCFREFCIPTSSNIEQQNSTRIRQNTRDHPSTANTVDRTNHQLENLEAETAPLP
DOR, sequence (P41143 whole entry): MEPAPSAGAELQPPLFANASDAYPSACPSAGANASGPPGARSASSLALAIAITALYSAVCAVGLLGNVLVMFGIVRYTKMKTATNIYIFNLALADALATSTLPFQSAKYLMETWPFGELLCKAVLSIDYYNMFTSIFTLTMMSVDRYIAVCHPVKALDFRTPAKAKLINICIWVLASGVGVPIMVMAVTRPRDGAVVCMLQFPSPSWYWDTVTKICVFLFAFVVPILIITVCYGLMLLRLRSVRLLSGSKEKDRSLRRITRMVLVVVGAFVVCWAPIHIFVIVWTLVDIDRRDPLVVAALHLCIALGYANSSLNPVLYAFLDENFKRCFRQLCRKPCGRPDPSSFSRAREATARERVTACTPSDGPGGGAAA
H3, sequence (Q9Y5N1 whole entry): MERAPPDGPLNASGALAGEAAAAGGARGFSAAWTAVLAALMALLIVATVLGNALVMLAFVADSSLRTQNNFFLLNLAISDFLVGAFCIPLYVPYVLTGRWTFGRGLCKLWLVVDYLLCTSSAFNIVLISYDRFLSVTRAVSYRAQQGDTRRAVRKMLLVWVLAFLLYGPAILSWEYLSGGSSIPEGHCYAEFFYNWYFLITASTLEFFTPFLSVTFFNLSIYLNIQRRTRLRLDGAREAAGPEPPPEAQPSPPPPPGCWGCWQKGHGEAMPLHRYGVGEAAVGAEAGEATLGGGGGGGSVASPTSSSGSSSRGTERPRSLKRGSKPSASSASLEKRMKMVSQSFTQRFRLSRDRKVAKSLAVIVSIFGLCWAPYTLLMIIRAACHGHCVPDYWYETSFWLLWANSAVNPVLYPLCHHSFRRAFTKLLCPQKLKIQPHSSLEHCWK
KOR, sequence (P41145 whole entry): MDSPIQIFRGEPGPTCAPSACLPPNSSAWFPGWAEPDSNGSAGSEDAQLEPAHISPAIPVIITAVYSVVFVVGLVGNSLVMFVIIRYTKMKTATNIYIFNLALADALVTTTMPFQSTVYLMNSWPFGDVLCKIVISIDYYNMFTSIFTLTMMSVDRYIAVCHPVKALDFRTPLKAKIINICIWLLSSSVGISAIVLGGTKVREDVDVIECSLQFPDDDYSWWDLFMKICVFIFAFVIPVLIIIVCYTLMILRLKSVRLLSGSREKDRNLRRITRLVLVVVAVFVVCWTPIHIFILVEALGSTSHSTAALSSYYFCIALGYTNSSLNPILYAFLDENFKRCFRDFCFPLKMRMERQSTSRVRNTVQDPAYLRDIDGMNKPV

For CCCCCc1cc(O)c([C@@H]2C=C(C)CC[C@H]2C(C)C)c(O)c1 [H2-CBD], the “affinity for the CB1 receptor” value (CB1 receptor) is given as “moderate affinity”.

For C=C(C)[C@@H]1CCC(C)=C[C@H]1c1c(O)cc(CCCCC)cc1O [CBD, Cannabidiol], the inhibition at 10 µM (KOR) is listed as greater than 50%, the “concentration at which CBD promiscuously affects ion channels” value (ion channels) is listed as 0.1 to 5 µM and the “change in PANSS scores” value [1] is listed as “clinically-significant reduction”. The inhibition at 10 µM (D1) was greater than 50%, the pKi (σ2) was less than 6.00 and the inhibition at 10 µM (σ2) was greater than 50%. The “inhibition of malate dehydrogenase (MDH)” value [2] was “detergent-sensitive inhibition”, the pEC50 (5-HT1A receptor) was 4.80 to 5.10 and the inhibition at 10 µM (MOR) was greater than 50%. For the same compound, the inhibition at 10 µM (ɑ2C) was greater than 50%, the inhibition at 10 µM (H3) was greater than 50% and the “number of genes altered in gene expression arrays” value (mice) was greater than 50 genes. For the same compound, the chemical stability [3] was “chemically unstable”, the inhibition at 10 µM (DOR) was greater than 50% and the “concentration at which CBD promotes DDI and potentiates the action of many drugs” value [4] was 5 to 10 µM. The “concentration at which detectable colloidal aggregates form (DLS)” value [5] was “approximately 12.5 μM”, the inhibition at 10 µM (ɑ2b) was greater than 50% and the inhibition at 10 µM (5-HT2C) was greater than 50%. The “inhibition of AmpC β-lactamase” value (AmpC β-lactamase) was “detergent-sensitive inhibition”, the plasma concentration ([6]; humans, single dose of an oral preparation containing 100 mg of CBD) was 36 ng/mL and approximately 100 nM and the volume of distribution ([6]; oromucosal spray formulations) was 26,000–31,000 L. The “apparent plasma clearance (CL')” value ([6]; doses 5–20 mg) was 2,500–4,700 L/h and the “apparent plasma clearance (CL')” value ([6]; fed state) was 533 L/h.

In the case of C=C(C)[C@H]1CCC(C)=C[C@@H]1c1c(O)cc(CCCCC)cc1O [(+)-CBD], the CB1 receptor affinity (CB1 receptor) is given as “below 1 μM” and the CB2 receptor affinity (CB2 receptor) is given as “below 1 μM”.
